# Source: patent US20090069623A1, “METHODS AND COMPOSITIONS FOR TREATMENT OR PREVENTION OF RADIATION-INDUCED FIBROSIS” (Virginia Commonwealth University Intellectual Property …, priority 2007, published 2009)
# Experiments:
# Format in all cases: cell-based, human
# CTGF, fibronectin [1] = assay: Western blot of irradiated HFL-1 cells treated with HMG-CoA inhibitors; details: 5 Gy, three days, FIG. 8C; for amount of CTGF detected in the cell lysate (CL): HMG-CoA inhibitor pretreatment 6 hours
# Experimental: For statin treatment experiments, cells were grown overnight in 35 mm plates (6-well plates were also used in some studies) to form a 75-80% confluent monolayer. The cells were then washed with PBS, and the media was changed to SFM (800 μL).
# (§1) Harvesting Culture Media and Cell Lystates. For analysis of extracellular CTGF, fibronectin, and α-tubulin, cell culture media was collected, centrifuged to remove cellular debris, aliquoted, and frozen at −70° C. until ready for use. For analysis of intracellular CTGF, fibronectin, and α-tubulin, cell lysates were harvested using 200 μL of HBSST lysis buffer (HBSS containing 1 mM MgSO4, 1 mM CaCl2, 4 mM NaHCO3, 0.5% Triton X-100, protease inhibitor cocktail). Cellular debris was removed by centrifugation.
# Western blot analysis of HFL-1 whole cell proteins. […] Primary antibodies for CTGF and fibronectin were diluted at 1:600 and were incubated at 4° C. overnight with shaking. Primary antibodies for α-tubulin were diluted at 1:4,000 and were incubated at 4° C. overnight with shaking. Corresponding secondary antibodies were diluted at 1:6,000 and were incubated at room temperature for 1 hour with shaking. After washing the blot, the antibodies were detected by the enhanced chemiluminescence method (PerkinElmer Life Sciences Inc.).
# Cells were harvested, and cell lysates were separated by SDS-PAGE. The separated proteins were then transferred to nitrocellulose, and Western immunoblotting was performed with antibodies specific for CTGF, fibronectin, and α-tubulin. […] As a control for protein loading, α-tubulin expression in HFL-1 cells was also determined.
# Cells were harvested, and cell lysates were separated by SDS-PAGE. The separated proteins were then transferred to nitrocellulose, and Western immunoblotting was performed with antibodies specific for CTGF, fibronectin, and α-tubulin. FIG. 8C is a Western blot of HFL-1 cells exposed to radiation and treated with HMG-CoA inhibitors.
# [2] = system: CTGF, fibronectin (FN), collagen type IV (Col IV) mRNA; assay: RT-PCR of mRNA expression in HFL-1 cells treated with TGF-β1; details: 0 to 25 ng/ml TGF-β1, six hour treatment, FIG. 5A
# Experimental: (§2) Cell Culture and Treatment. Normal human fetal lung fibroblasts (HFL-1) were purchased from the American Type Culture Collection (ATCC Number: CCL-153) and cultured in Ham's F12K medium (American Type Culture Collection) supplemented with 2 mM L-glutamine adjusted to contain 1.5 g/L sodium bicarbonate and 10% fetal bovine serum. Cells were maintained in humidified 5% CO2 at 37° C. Human dermal fibroblasts (HDF), derived from the dermis of normal human adult skin, were purchased from Invitrogen, Inc. and cultured in Medium-106 (Invitrogen, Inc., Catalogue No. M-106-500) containing LSGS Kit (Invitrogen, Inc., Catalogue No. S-003-K) prior to use. After reaching 75-80% confluence, the medium was changed to serum free medium (SFM) for irradiation with different dose 1Gy, 2.5Gy, 5Gy, 7.5Gy and 10 Gy by using ^137Se. Alternatively, cells were treated with 5 ng/ml TGF-β1 (Sigma-Aldrich, Inc., Catalogue No. T7039) to stimulate CTGF production. The cells were then kept for 3 days in humidified 5% CO2 at 37° C. and subjected to Western immunoblot.^1 ^1What are the culture conditions (e.g., media) for M12 cells used in FIG. 3? […]
# Normal human fetal lung fibroblasts (HFL-1) were treated with varying concentrations of TGF-β1, ranging from 0 ng/ml to 25 ng/ml. […] FIG. 5A is an agarose gel of RT-PCR products detected in HFL-1 cells following a six (6) hour treatment with TGF-β1.
# CTGF, fibronectin [3] = assay: Western blot of HFL-1 cells treated with TGF-β1
# Experimental: Cell Culture and Treatment. Normal human fetal lung fibroblasts (HFL-1) were purchased from the American Type Culture Collection (ATCC Number: CCL-153) and cultured in Ham's F12K medium (American Type Culture Collection) supplemented with 2 mM L-glutamine adjusted to contain 1.5 g/L sodium bicarbonate and 10% fetal bovine serum. Cells were maintained in humidified 5% CO2 at 37° C. Human dermal fibroblasts (HDF), derived from the dermis of normal human adult skin, were purchased from Invitrogen, Inc. and cultured in Medium-106 (Invitrogen, Inc., Catalogue No. M-106-500) containing LSGS Kit (Invitrogen, Inc., Catalogue No. S-003-K) prior to use. After reaching 75-80% confluence, the medium was changed to serum free medium (SFM) for irradiation with different dose 1Gy, 2.5Gy, 5Gy, 7.5Gy and 10 Gy by using ^137Se. Alternatively, cells were treated with 5 ng/ml TGF-β1 (Sigma-Aldrich, Inc., Catalogue No. T7039) to stimulate CTGF production. […] 3?
# as §1
# Western blot analysis of HFL-1 whole cell proteins. The primary antibodies that selectively recognized CTGF (sc-14939) and fibronectin (sc-9068) were purchased from Santa Cruz Biotechnology, Inc., and primary antibodies that selectively recognized α-tubulin (T 9026) were purchased from Sigma. […] After washing the blot, the antibodies were detected by the enhanced chemiluminescence method (PerkinElmer Life Sciences Inc.).
# Protein expression in HFL-1 cells treated with TGF-β1 was also determined. […] As a control for protein loading, α-tubulin expression in HFL-1 cells was also determined.
# [4] = system: CTGF, fibronectin (FN), collagen type IV (Col IV) mRNA; assay: RT-PCR of mRNA expression in HDF cells treated with TGF-β1; details: 0 to 25 ng/ml TGF-β1, FIG. 9A
# Experimental: as §2
# Human dermal fibroblasts (HDF) were treated with varying concentrations of TGF-β1, ranging from 0 ng/ml to 25 ng/ml, […]. […] FIG. 9A is an agarose gel of RT-PCR products detected in HDF cells following a six (6) hour treatment with TGF-β1.
# CTGF, fibronectin [5] = assay: Western blot of HDF cells treated with TGF-β1; details: three days after TGF-β1, FIG. 9B
# Experimental: Cell Culture and Treatment. Normal human fetal lung fibroblasts (HFL-1) were purchased from the American Type Culture Collection (ATCC Number: CCL-153) and cultured in Ham's F12K medium (American Type Culture Collection) supplemented with 2 mM L-glutamine adjusted to contain 1.5 g/L sodium bicarbonate and 10% fetal bovine serum. Cells were maintained in humidified 5% CO2 at 37° C. Human dermal fibroblasts (HDF), derived from the dermis of normal human adult skin, were purchased from Invitrogen, Inc. and cultured in Medium-106 (Invitrogen, Inc., Catalogue No. M-106-500) containing LSGS Kit (Invitrogen, Inc., Catalogue No. S-003-K) prior to use. After reaching 75-80% confluence, the medium was changed to serum free medium (SFM) for irradiation with different dose 1Gy, 2.5Gy, 5Gy, 7.5Gy and 10 Gy by using ^137Se. […]
# Harvesting Culture Media and Cell Lystates. For analysis of extracellular CTGF, fibronectin, and α-tubulin, cell culture media was collected, centrifuged to remove cellular debris, aliquoted, and frozen at −70° C. until ready for use. […]
# Western blot analysis of HFL-1 whole cell proteins. […] After washing the blot, the antibodies were detected by the enhanced chemiluminescence method (PerkinElmer Life Sciences Inc.).
# Protein expression in HDF cells treated with TGF-β1 was also determined. […] As a control for protein loading, α-tubulin expression in HFL-1 cells was also determined.
# [6] = three days after TGF-β1, FIG. 5B
compound,measurement,setting,value
CCOP(=O)(OCC)C(=Cc1cc(C(C)(C)C)c(O)c(C(C)(C)C)c1)P(=O)(OCC)OCC [SR12813],amount of CTGF detected in the cell lysate (CL),"CTGF, fibronectin [1]",decreased as the amount of HMG-CoA inhibitor increased
same,inhibitory effects on radiation-induced CTGF relative to other HMG-CoA inhibitors,"CTGF, fibronectin [1]; pretreatment 6 hours","reduced relative to the inhibitory effects of simvastatin, pravastatin, lovastatin, mevinolin, and mevastatin"
"CC[C@H](C)C(=O)O[C@H]1CCC=C2C=C[C@H](C)[C@H](CC[C@@H]3C[C@@H](O)CC(=O)O3)C21 (stereo partly drawn) [mevastatin, (2S)-2-methyl-butanoic acid(1S,7S,8S,8aR)-1,2,3,7,8,8a-hexahydro-7-methyl-8-[2-[(2R,4R)-tetrahydro-4-hydroxy-6-oxo-2H-pyran-2-yl]ethyl]-1-naphthale-nylester]",amount of CTGF detected in the cell lysate (CL),"CTGF, fibronectin [1]",decreased as the amount of HMG-CoA inhibitor increased
"CC[C@H](C)C(=O)O[C@H]1C[C@H](O)C=C2C=C[C@H](C)[C@H](CC[C@@H](O)C[C@@H](O)CC(=O)O)[C@H]21 [pravastatin, (βR,δR,1S,2S,6S,8S,8aR)-1,2,6,7,8,8a-hexahydro-β,δ,-6-trihydroxy-2-methyl-8-[(2S)-2-methyl-1-oxobutoxy]-1-naphthalene-heptanoic acid]",amount of CTGF detected in the cell lysate (CL),"CTGF, fibronectin [1]",decreased as the amount of HMG-CoA inhibitor increased
"(2S)-2-methyl-butanoic acid(1S,3R,7S,8S,8aR)-1,2,3,7,8,8a-hexahydro-3,7-dimethyl-8-[2-[(2R,4R)-tetrahydro-4-hydroxy-6-oxo-2H-pyran-2-yl]ethyl]-1-na-phthalenylester [mevinolin]",amount of CTGF detected in the cell lysate (CL),"CTGF, fibronectin [1]",decreased as the amount of HMG-CoA inhibitor increased
"TGF-β1: Cytokine used to stimulate CTGF production (Sigma-Aldrich, Inc., Catalogue No. T7039)","expression of CTGF, FN, and Col IV mRNA",[2],increased as the concentration of TGF-β1 increased
same,CTGF expression,"CTGF, fibronectin [3]; 5 ng/ml TGF-β1 for 4 days, FIG. 1",increased
same,amount of CTGF in culture medium (CM) and cell lysate (CL),"CTGF, fibronectin [3]; [6]",increased as the amount of TGF-β1 increased
same,fibronectin protein expression,"CTGF, fibronectin [3]; [6]",same increase in protein expression
same,"expression of CTGF, FN, and Col IV mRNA",[4],increased as the concentration of TGF-β1 increased
same,amount of CTGF in culture medium (CM) and cell lysate (CL),"CTGF, fibronectin [5]",increased as the amount of TGF-β1 increased
same,fibronectin protein expression,"CTGF, fibronectin [5]",same increase in protein expression
